According to ChEMBL document CHEMBL1201862, “PubChem BioAssay data set” (2004):
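Method: 48-hour compound exposure of cells in 96-well plates, five concentrations, linear interpolation of endpoints. GI50: concentration for 50% inhibition of growth.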 Active and inactive are the calls of the source. Rule as the data show it: active = GI50 up to about 1.1 µM and inactive = higher.

Experiments:
Experiment in all cases: NCI-60 cell line screen, 48 h
HOP-18 = test system: HOP-18
KM-20L2 = test system: KM-20L2
SNB-78 = test system: SNB-78
LXFL 529 = test system: LXFL 529
DMS-114 = test system: DMS-114
M19-MEL = test system: M19-MEL
DMS-273 = test system: DMS-273
RXF 631 = test system: RXF 631
XF498 = test system: XF498

Structure (SMILES) | GI50 (HOP-18) | GI50 (KM-20L2) | GI50 (SNB-78) | GI50 (LXFL 529) | GI50 (DMS-114) | GI50 (M19-MEL) | GI50 (DMS-273) | GI50 (RXF 631) | GI50 (XF498)
C=CCCCCn1c2ccccc2c2c(C)c3c[n+](C)ccc3c(C)c21 | 0.0912 µM (active) | 0.352 µM (active) | 0.387 µM (active) | 0.176 µM (active) | 0.118 µM (active) | 0.296 µM (active) | – | – | –
CC(O)CCC(=O)c1ccoc1 (stereo not drawn) | 5150 µM (inactive) | > 9160 µM (inactive) | 5500 µM (inactive) | > 1000 µM (inactive) | 2610 µM (inactive) | 5480 µM (inactive) | 5450 µM (inactive) | – | –
Nc1ncnc(NC2C=C(CO)C(O)C2O)c1[N+](=O)[O-] (stereo not drawn) | > 100 µM (inactive) | > 100 µM (inactive) | > 100 µM (inactive) | > 100 µM (inactive) | > 100 µM (inactive) | > 100 µM (inactive) | > 100 µM (inactive) | > 100 µM (inactive) | –
O=C(OC1CC(n2cc(F)c(=O)[nH]c2=O)OC1CSC(=O)c1ccccc1)c1ccccc1 (stereo not drawn) | 33.3 µM (inactive) | 18.7 µM (inactive) | 32.1 µM (inactive) | 90.8 µM (inactive) | 37.3 µM (inactive) | 26.5 µM (inactive) | – | 15.1 µM (inactive) | –
Nc1nc(CCC(=O)Nc2cccc(C(F)(F)F)c2)cc(-c2ccc3ccccc3c2)n1 | > 100 µM (inactive) | > 100 µM (inactive) | > 100 µM (inactive) | > 100 µM (inactive) | > 100 µM (inactive) | > 100 µM (inactive) | > 100 µM (inactive) | – | > 100 µM (inactive)
Cn1cnc([N+](=O)[O-])c1Sc1nc(N)nc2c1ncn2C1OC(CO)C(O)C1O (stereo not drawn) | 44.7 µM (inactive) | 3.06 µM (inactive) | 7.26 µM (inactive) | 45.8 µM (inactive) | 10.7 µM (inactive) | 35.2 µM (inactive) | 4.17 µM (inactive) | – | 6.87 µM (inactive)
COC1CCC(OC)C(C2(C3CC(OC)CCC3OC)OC(=O)c3ccccc32)C1 (stereo not drawn) | > 100 µM (inactive) | 44.2 µM (inactive) | > 100 µM (inactive) | – | 55.7 µM (inactive) | – | 22.6 µM (inactive) | > 100 µM (inactive) | 76.4 µM (inactive)
CC(C)(Br)C(Br)CC/C(=C/CBr)CBr.CC(C)(Br)C(Br)CC/C(=C\CBr)CBr (stereo not drawn) | 18 µM (inactive) | – | 4.46 µM (inactive) | 3.3 µM (inactive) | – | 2 µM (inactive) | 1.65 µM (inactive) | – | –
COC1(OC)CCC2C1C1CCC(OC)(OC)C21 (stereo not drawn) | > 50 µM (inactive) | > 50 µM (inactive) | > 50 µM (inactive) | > 50 µM (inactive) | > 50 µM (inactive) | > 50 µM (inactive) | > 50 µM (inactive) | > 50 µM (inactive) | > 50 µM (inactive)
CC(C)CCC[C@@H](C)C1CCC2[C@@H]3CC=C4C[C@@H](OC(=O)CCC(=O)NCC[N+](C)(C)CCCS(=O)(=O)[O-])CC[C@]4(C)C3CC[C@@]21C (stereo partly drawn) | 30.5 µM (inactive) | 81.3 µM (inactive) | 24.9 µM (inactive) | 27.9 µM (inactive) | 20.6 µM (inactive) | 18.5 µM (inactive) | 14.7 µM (inactive) | – | –
c1ccc2c(C3NCCc4nc[nH]c43)cccc2c1 (stereo not drawn) | > 100 µM (inactive) | > 100 µM (inactive) | > 100 µM (inactive) | > 100 µM (inactive) | > 100 µM (inactive) | > 100 µM (inactive) | > 100 µM (inactive) | – | –
COC1=CC(=O)C2C(C1=O)[C@@H]1c3ccccc3C[C@H]21 (stereo partly drawn) | – | – | > 100 µM (inactive) | – | – | > 100 µM (inactive) | > 100 µM (inactive) | > 100 µM (inactive) | > 100 µM (inactive)
CC(=O)OCCOCNC(=S)N/N=C(\C)c1cnccn1 | 25.4 µM (inactive) | 13.2 µM (inactive) | > 100 µM (inactive) | 22.9 µM (inactive) | 16.8 µM (inactive) | 15.9 µM (inactive) | 24.5 µM (inactive) | – | > 100 µM (inactive)
CN(C)C(=S)/N=c1\ssc(=S)n1Cc1cccnc1 | > 100 µM (inactive) | 2.06 µM (inactive) | > 100 µM (inactive) | 6.15 µM (inactive) | 0.783 µM (active) | 1.51 µM (inactive) | 1.09 µM (active) | 4.39 µM (inactive) | 3.15 µM (inactive)
CC(C)C(/N=C1\CC2CCC1(C(=O)Nc1ccccc1O)C2(C)C)c1ccccc1 (stereo not drawn) | > 10 µM (inactive) | > 10 µM (inactive) | > 10 µM (inactive) | > 10 µM (inactive) | > 10 µM (inactive) | > 10 µM (inactive) | > 10 µM (inactive) | > 10 µM (inactive) | 7.29 µM (inactive)
CCOC(=O)C1S/C(=N\c2cccc(Cl)c2C)N=C1C (stereo not drawn) | 28.7 µM (inactive) | 17.3 µM (inactive) | 33 µM (inactive) | > 10 µM (inactive) | 30.4 µM (inactive) | 26.9 µM (inactive) | – | – | 19.7 µM (inactive)
CC12CCC(=O)N1c1cc([N+](=O)[O-])ccc1N2 (stereo not drawn) | > 100 µM (inactive) | > 100 µM (inactive) | > 100 µM (inactive) | > 100 µM (inactive) | > 100 µM (inactive) | > 100 µM (inactive) | > 100 µM (inactive) | > 100 µM (inactive) | > 100 µM (inactive)
CC(=O)OCC1OC(n2ccc(=O)[nH]c2=O)C(OC(C)=O)C(OC(C)=O)C1OC(C)=O (stereo not drawn) | > 100 µM (inactive) | > 100 µM (inactive) | – | > 100 µM (inactive) | > 100 µM (inactive) | > 100 µM (inactive) | > 100 µM (inactive) | – | > 100 µM (inactive)
NC(=O)C(N)=O | > 100 µM (inactive) | > 100 µM (inactive) | > 100 µM (inactive) | > 100 µM (inactive) | > 100 µM (inactive) | > 100 µM (inactive) | > 100 µM (inactive) | – | > 100 µM (inactive)
CO/C=C(\Br)c1ccc2c(c1)OCO2 | – | – | > 100 µM (inactive) | > 100 µM (inactive) | > 100 µM (inactive) | > 100 µM (inactive) | > 100 µM (inactive) | > 100 µM (inactive) | > 100 µM (inactive)
COC(=O)C1=C(C(=O)OC)C2(C)Nc3ccccc3C2=C(c2ccccc2)C1 (stereo not drawn) | – | 28.1 µM (inactive) | 19 µM (inactive) | 15.1 µM (inactive) | 18.3 µM (inactive) | 24.2 µM (inactive) | 21.4 µM (inactive) | – | 12.7 µM (inactive)
CCc1nnc(S)n1/N=C/c1ccc(-c2ccc([N+](=O)[O-])cc2)o1 | – | > 100 µM (inactive) | > 100 µM (inactive) | > 100 µM (inactive) | – | > 100 µM (inactive) | > 100 µM (inactive) | – | > 100 µM (inactive)
NNC(=O)CNC(=O)c1ccc(Cl)cc1Cl | > 100 µM (inactive) | > 100 µM (inactive) | – | > 100 µM (inactive) | > 100 µM (inactive) | > 100 µM (inactive) | > 100 µM (inactive) | – | 91.6 µM (inactive)
Cc1c(C(=O)CSc2nc3ccccc3c(=O)n2-c2ccccc2)c(=O)n(-c2ccccc2)n1C | – | > 100 µM (inactive) | 45.5 µM (inactive) | – | > 100 µM (inactive) | 52.7 µM (inactive) | 68.2 µM (inactive) | – | 43.2 µM (inactive)
Cc1nsc2cc(Cl)n(C)c(=O)c12 | – | > 100 µM (inactive) | > 100 µM (inactive) | > 100 µM (inactive) | > 100 µM (inactive) | > 100 µM (inactive) | > 100 µM (inactive) | > 100 µM (inactive) | > 100 µM (inactive)
COC12CCC(C(C(=O)c3ccccc3)=C1C(=O)c1ccccc1)C(O)C2 (stereo not drawn) | – | – | > 100 µM (inactive) | > 100 µM (inactive) | > 100 µM (inactive) | > 100 µM (inactive) | > 100 µM (inactive) | > 100 µM (inactive) | > 100 µM (inactive)
CCC1=C(C)/C(=C/c2[nH]c(C(Br)Br)c(CC)c2C)N=C1C(Br)Br | 84.9 µM (inactive) | 41 µM (inactive) | 33.4 µM (inactive) | 31.9 µM (inactive) | 19 µM (inactive) | 20.9 µM (inactive) | – | – | –
CC(=O)OC1CC2Oc3ccc(C)cc3C(C)(O2)C1=O (stereo not drawn) | > 100 µM (inactive) | – | – | – | > 100 µM (inactive) | > 100 µM (inactive) | > 100 µM (inactive) | – | 76 µM (inactive)
CCCCN(CCCC)C(=O)C(=O)CC(=O)c1ccc(Br)cc1 | > 100 µM (inactive) | > 100 µM (inactive) | > 100 µM (inactive) | > 100 µM (inactive) | > 100 µM (inactive) | > 100 µM (inactive) | > 100 µM (inactive) | – | > 100 µM (inactive)
